Measured values taken from patent US7803930B2, “Antisense modulation of apolipoprotein B-expression” (Isis Pharmaceuticals, Inc., priority 2002, dated 2010).
In the oligonucleotide strings, read from the 5' end, every base follows the letter of its sugar. An asterisk marks phosphorothioate; unmarked linkages are phosphodiester. Other units and linkages are bracketed, terminal groups are in braces. A string of capitals states the bases alone. e = 2'-O-(2-methoxyethyl) (MOE); [5mC] = 5-methylcytosine; d = 2'-deoxy (DNA)

Test system: human apolipoprotein B mRNA
Test: Inhibition of human apolipoprotein B mRNA levels in HepG2 cells, quantitative real-time PCR
Format: cell-based
Conditions: for % Change in apolipoprotein B mRNA expression: 24 hour (Table 41); for % INHIB (inhibition of human apolipoprotein B mRNA levels): HepG2 cells treated with 150 nM of compound, quantitative real-time PCR
Procedure: The human hepatoblastoma cell line HepG2 was obtained from the American Type Culture Collection (Manassas, Va.). HepG2 cells were routinely cultured in Eagle's MEM supplemented with 10% fetal calf serum, non-essential amino acids, and 1 mM sodium pyruvate (Gibco/Life Technologies, Gaithersburg, Md.). Cells were routinely passaged by trypsinization and dilution when they reached 90% confluence. Cells were seeded into 96-well plates (Falcon-Primaria #3872) at a density of 7000 cells/well for use in RT-PCR analysis.
When cells reached 80% confluency, they were treated with oligonucleotide. For cells grown in 96-well plates, wells were washed once with 200 μL OPTI-MEM™-1 reduced-serum medium (Gibco BRL) and then treated with 130 μL of OPTI-MEM™-1 containing 3.75 μg/mL LIPOFECTIN™ (Gibco BRL) and the desired concentration of oligonucleotide. After 4-7 hours of treatment, the medium was replaced with fresh medium. Cells were harvested 16-24 hours after oligonucleotide treatment.
Quantitation of apolipoprotein B mRNA levels was determined by real-time quantitative PCR using the ABI PRISM™ 7700 Sequence Detection System (PE-Applied Biosystems, Foster City, Calif.) according to manufacturer's instructions. This is a closed-tube, non-gel-based, fluorescence detection system which allows high-throughput quantitation of polymerase chain reaction (PCR) products in real-time. As opposed to standard PCR, in which amplification products are quantitated after the PCR is completed, products in real-time quantitative PCR are quantitated as they accumulate. This is accomplished by including in the PCR reaction an oligonucleotide probe that anneals specifically between the forward and reverse PCR primers, and contains two fluorescent dyes. A reporter dye (e.g., JOE, FAM, or VIC, obtained from either Operon Technologies Inc., Alameda, Calif. or PE-Applied Biosystems, Foster City, Calif.) is attached to the 5′ end of the probe and a quencher dye (e.g., TAMRA, obtained from either Operon Technologies Inc., Alameda, Calif. or PE-Applied Biosystems, Foster City, Calif.) is attached to the 3′ end of the probe. When the probe and dyes are intact, reporter dye emission is quenched by the proximity of the 3′ quencher dye. During amplification, annealing of the probe to the target sequence creates a substrate that can be cleaved by the 5′-exonuclease activity of Taq polymerase. […] With each cycle, additional reporter dye molecules are cleaved from their respective probes, and the fluorescence intensity is monitored at regular intervals by laser optics built into the ABI PRISM™ 7700 Sequence Detection System. In each assay, a series of parallel reactions containing serial dilutions of mRNA from untreated control samples generates a standard curve that is used to quantitate the percent inhibition after antisense oligonucleotide treatment of test samples.
PCR reagents were obtained from PE-Applied Biosystems, Foster City, Calif. RT-PCR reactions were carried out by adding 25 μL PCR cocktail (1× TAQMAN™ buffer A, 5.5 mM MgCl2, 300 μM each of DATP, dCTP and dGTP, 600 μM of dUTP, 100 nM each of forward primer, reverse primer, and probe, 20 Units RNAse inhibitor, 1.25 Units AMPLITAQ GOLD™, and 12.5 Units MuLV reverse transcriptase) to 96 well plates containing 25 μL total RNA solution. The RT reaction was carried out by incubation for 30 minutes at 48° C. Following a 10 minute incubation at 95° C. to activate the AMPLITAQ GOLD™, 40 cycles of a two-step PCR protocol were carried out: 95° C. for 15 seconds (denaturation) followed by 60° C. for 1.5 minutes (annealing/extension).
Gene target quantities obtained by real time RT-PCR are normalized using either the expression level of GAPDH, a gene whose expression is constant, or by quantifying total RNA using RiboGreen™ (Molecular Probes, Inc. Eugene, Oreg.). GAPDH expression is quantified by real time RT-PCR, by being run simultaneously with the target, multiplexing, or separately. […]

[1] = Table 11 gene walk, HepG2 cells, 50 nM, averages from two experiments
[2] = Table 11 gene walk, HepG2 cells, 150 nM, averages from two experiments
[3] = HepG2 cells, human apolipoprotein B mRNA, oligonucleotides targeting genomic sequence SEQ ID NO 334, averages from two experiments
[4] = HepG2 cells, 50 nm oligonucleotide, variable deoxy gap position
[5] = HepG2 cells, 150 nm oligonucleotide, variable deoxy gap position

## 308604 (eA*eT*eG*eT*e[5mC]*dA*dT*dG*dG*dT*dA*dG*d[5mC]*d[5mC]*dT*e[5mC]*eA*eG*eT*e[5mC]; antisense) [compound 308604]
[1]
  % INHIB 50 nm: 73%
[2]
  % INHIB 150 nm: 90%

## 332777 (antisense GCCTCAGTCTGCTTCGCA; sugars from the 5' end e5 d10 e3, all phosphorothioate, methylation of C not given here) [compound 332777]
HepG2 cells, 10 nM
  % Change in apolipoprotein B mRNA expression: −27%
HepG2 cells, 50 nM
  % Change in apolipoprotein B mRNA expression: −53%
HepG2 cells, 150 nM
  % Change in apolipoprotein B mRNA expression: -80%

## 271027 (e[5mC]*e[5mC]*e[5mC]*eA*eT*dG*d[5mC]*dT*d[5mC]*d[5mC]*dG*dT*dT*d[5mC]*dT*e[5mC]*eA*eG*eG*eT; antisense) [compound 271027]
Averages from two experiments
  % INHIB (inhibition of human apolipoprotein B mRNA levels): 26%

## 281599 (eT*eT*e[5mC]*e[5mC]*eA*dA*dT*dG*dA*d[5mC]*d[5mC]*d[5mC]*dG*d[5mC]*dA*eG*eA*eA*eT*e[5mC]; antisense) [compound 281599]
Averages from two experiments
  % INHIB (inhibition of human apolipoprotein B mRNA levels): 74%

## 301093 (antisense eT*eG*eG*eA*eT*dT*dT*dG*dG*dA*dT*dA*d[5mC]*dA*d[5mC]*eA*eA*eG*eT*eT) [compound 301093]
[3]
  % INHIB: 42%

## 308662 (antisense TGGTAGCCTCAGTCTGCTTC; 8-10-2 2'-MOE gapmer, phosphorothioate, chemistry not fully specified) [compound 308662]
[4]
  % INHIB 50 nm: 76%
[5]
  % INHIB 150 nm: 83%

## 281610 (antisense e[5mC]*eA*eG*e[5mC]*eT*d[5mC]*dT*dA*dA*dT*d[5mC]*dT*dG*dG*dT*eG*eT*e[5mC]*e[5mC]*e[5mC]) [compound 281610]
Averages from two experiments
  % INHIB (inhibition of human apolipoprotein B mRNA levels): 69%

## 301225 (antisense eT*eA*eA*eA*eT*d[5mC]*dA*d[5mC]*dA*d[5mC]*dT*dA*dT*dG*dT*eG*eT*eT*e[5mC]*eT) [compound 301225]
Table 15, HepG2 cells, 150 nM, averages from two experiments
  % INHIB: 3%

## 301177 (antisense eT*eG*eA*eA*eG*dA*d[5mC]*dA*dG*dG*dG*dA*dG*d[5mC]*d[5mC]*eA*e[5mC]*e[5mC]*eT*eA) [compound 301177]
[3]
  % INHIB: 40%

## 301107 (antisense eT*eT*e[5mC]*eT*eT*dA*dG*dT*dA*d[5mC]*d[5mC]*dT*dG*dG*dA*eA*eG*eA*eT*eG) [compound 301107]
[3]
  % INHIB: 23%

## 281617 (antisense eA*e[5mC]*e[5mC]*eA*e[5mC]*dA*dG*dA*dG*dT*d[5mC]*dA*dG*d[5mC]*d[5mC]*eT*eT*e[5mC]*eA*eT) [compound 281617]
Averages from two experiments
  % INHIB (inhibition of human apolipoprotein B mRNA levels): 89%

## 281608 (antisense eG*eT*eA*eG*eA*dG*dA*d[5mC]*d[5mC]*dA*dA*dA*dT*dG*dT*eA*eA*eT*eG*eT) [compound 281608]
Averages from two experiments
  % INHIB (inhibition of human apolipoprotein B mRNA levels): 62%

## 301127 (eT*e[5mC]*e[5mC]*eT*eA*dG*dA*dG*d[5mC]*dA*d[5mC]*dT*dA*dT*d[5mC]*eA*eA*eG*eT*eA; antisense) [compound 301127]
[3]
  % INHIB: 41%

## 301118 (antisense eA*eT*eG*eT*eG*d[5mC]*dA*d[5mC]*dA*d[5mC]*dA*dA*dG*dG*dA*e[5mC]*eA*eT*eA*eG) [compound 301118]
[3]
  % INHIB: 33%

## 308620 (eT*eG*eG*eT*eA*dG*dG*d[5mC]*dT*d[5mC]*d[5mC]*dT*dT*dT*dT*eA*eG*eG*eT*eT; antisense) [compound 308620]
[1]
  % INHIB 50 nm: 69%
[2]
  % INHIB 150 nm: 88%

## 308633 (GCCTCAGTCTGCTTCGCGCC; 10-10-0 MOE gapmer, phosphorothioate, chemistry not fully specified) [compound 308633]
Table 17 variable gap, HepG2 cells, 50 nM, averages from three experiments
  % INHIB 50 nm: 66%
Table 17 variable gap, HepG2 cells, 150 nM, averages from three experiments
  % INHIB 150 nm: 83%

## 301198 (antisense e[5mC]*eG*eG*eT*eG*d[5mC]*dA*d[5mC]*d[5mC]*d[5mC]*dT*dT*dT*dA*d[5mC]*e[5mC]*eT*eG*eA*eG) [compound 301198]
[3]
  % INHIB: 28%

## 281600 (antisense eG*eA*eT*e[5mC]*eA*dT*d[5mC]*dA*dG*dT*dG*dA*dT*dG*dG*e[5mC]*eT*eT*eT*eG) [compound 281600]
Averages from two experiments
  % INHIB (inhibition of human apolipoprotein B mRNA levels): 52%

## 308617 (eG*e[5mC]*eT*e[5mC]*e[5mC]*dT*dT*dT*dT*dA*dG*dG*dT*dT*dA*e[5mC]*e[5mC]*eA*eG*e[5mC]; antisense) [compound 308617]
[1]
  % INHIB 50 nm: 77%
[2]
  % INHIB 150 nm: 87%

## 301099 (antisense eA*e[5mC]*e[5mC]*eA*e[5mC]*d[5mC]*dT*dG*dA*d[5mC]*dA*dT*d[5mC]*dA*d[5mC]*eA*eG*eG*eT*eT) [compound 301099]
[3]
  % INHIB: 24%

## 308635 (GCCTCAGTCTGCTTCGCACC; 10-10-0 MOE gapmer, phosphorothioate, chemistry not fully specified) [compound 308635]
[4]
  % INHIB 50 nm: 69%
[5]
  % INHIB 150 nm: 93%

## 301081 (eG*eA*eG*eT*eG*dT*dG*dG*dT*d[5mC]*dT*dT*dG*d[5mC]*dT*eA*eG*eT*eG*e[5mC]; antisense) [compound 301081]
[3]
  % INHIB: 46%

## 271006 (antisense eA*eG*eT*e[5mC]*e[5mC]*dG*dG*dA*dA*dT*dG*dA*dT*dG*dA*eT*eG*e[5mC]*e[5mC]*e[5mC]) [compound 271006]
Averages from two experiments
  % INHIB (inhibition of human apolipoprotein B mRNA levels): 42%

## 301104 (antisense e[5mC]*e[5mC]*eA*eG*eA*dG*dA*dT*dG*dA*dG*d[5mC]*dA*dA*d[5mC]*eT*eT*eA*eG*eG) [compound 301104]
[3]
  % INHIB: 38%

## 301034 (eT*eG*e[5mC]*eT*eT*dA*dT*dA*dG*dT*d[5mC]*dT*dA*d[5mC]*dT*eG*e[5mC]*e[5mC]*eT*eA; antisense) [compound 301034]
Averages from two experiments
  % INHIB (inhibition of human apolipoprotein B mRNA levels): 88%
Table 19 dose response, HepG2 cells, 37 nM, normalized to untreated control
  % inhibition 37 nM: 73%
Table 19 dose response, HepG2 cells, 75 nM, normalized to untreated control
  % inhibition 75 nM: 87%
Table 19 dose response, HepG2 cells, 150 nM, normalized to untreated control
  % inhibition 150 nM: 93%
Table 19 dose response, HepG2 cells, 300 nM, normalized to untreated control
  % inhibition 300 nM: 97%

## 271048 (e[5mC]*eT*eG*eA*eA*dG*dA*dT*dT*dA*d[5mC]*dG*dT*dA*dG*e[5mC]*eA*e[5mC]*e[5mC]*eT; antisense) [compound 271048]
Averages from two experiments
  % INHIB (inhibition of human apolipoprotein B mRNA levels): 7%

## 308594 (antisense eT*eG*e[5mC]*eT*eT*d[5mC]*dG*d[5mC]*dA*d[5mC]*d[5mC]*dT*dT*d[5mC]*dT*eG*e[5mC]*eT*eT*eG) [compound 308594]
[1]
  % INHIB 50 nm: 57%
[2]
  % INHIB 150 nm: 88%

## 271043 (e[5mC]*e[5mC]*e[5mC]*eA*eG*dT*dG*dG*dT*dA*d[5mC]*dT*dT*dG*dT*eT*eG*eA*e[5mC]*eA; antisense) [compound 271043]
Averages from two experiments
  % INHIB (inhibition of human apolipoprotein B mRNA levels): 68%

## 147789 (antisense eG*eG*eA*eA*eG*dA*dG*dG*dT*dG*dT*dT*dG*d[5mC]*dT*e[5mC]*e[5mC]*eT*eT*eG) [compound 147789]
Table 1, HepG2 cells, 150 nM, averages from two experiments
  % INHIB: 24%
